Article PMC10487843, “Evaluation of Anticancer and Anti-Inflammatory Activities of Some Synthetic Rearranged Abietanes” (International Journal of Molecular Sciences, 2023)
≈ marks a conversion by molar mass, not a printed value. Read-outs that look alike come from different tables or passages of the source.

Assays:
[1] = design: method as in PMID 29772301; details: orthoquinones versus para-quinones; cell lines not given; read-out: cytotoxic activity; cited from earlier work
[2] = test system: human carcinoma KB cells; design: method as in doi:10.1076/phbi.37.1.17.6321; details: cited from earlier work
[3] = test system: promyelocytic HL-60 cells; design: method as in PMID 16989306; details: cited from earlier work
[4] = test system: human leukemia lymphoblastic NALM-6; design: method as in PMID 16989306; details: cited from earlier work
[5] = test system: murine melanoma (B16–F10); experiment: MTT cell viability assay, B16-F10; type: cell-based; details: Mus musculus, 72 h; for IC80: 80% growth inhibition
Excerpt: (§1) In this study, we employed the MTT (3-(4,5-dimethyl thiazol-2-yl)-2,5-diphenyltetrazolium bromide) colorimetric assay to evaluate the cytotoxic activity of selected abietanes (compounds 5, 7, 13, 17, and 19) against three tumor cell lines: human colon adenocarcinoma (HT29), human hepatocarcinoma (HepG2), and murine melanoma (B16–F10). The MTT assay relied on the conversion of MTT to formazan by viable cells, with the formazan concentration proportional to the number of viable cells. The concentrations required for 50 and 80% growth inhibition (IC50 and IC80) were determined for each compound.
(§2) The human colorectal adenocarcinoma cell line HT29 (ECACC no. 9172201; ATCC no. HTB-38), the human hepatocarcinoma cell line HepG2 (ECACC no. 85011430), the mouse melanoma cells B16–F10 (ATCC no. CRL-6475), and the murine monocyte/macrophage like RAW 264.7 cell line (ATCC no, TIB-71) were obtained from the cell bank of the University of Granada, Spain. The tumor cell lines were cultured in DMEM (Dulbecco’s modified Eagle’s medium) supplemented with 2 mM glutamine, 10% heat-inactivated FCS (fetal calf serum), and 50 μg/mL of gentamicin (for all cancer cell lines). The RAW 264.7 cell line was cultured in RPMI1640 medium, supplemented with 2 mM glutamine, 10% heat-inactivated FCS, and 50 μg/mL of gentamicin. All cell lines were incubated at 37 °C, in an atmosphere of 5% CO2 and 95% humidity. The culture media were changed every 48 h, and the confluent cultures were separated with a trypsin solution (0.25% EDTA). In all experiments, monolayer cells were grown to 80–90% confluence in sterile cell culture flasks.
(§3) The effects of the compounds on the cell viability were established using the MTT method (Sigma, St. Louis, MO, USA). The cytotoxicity of the compounds was assessed by measuring the absorbance of MTT dye staining of metabolically competent cells. The cells were cultivated in 96-well plates at 6.0 × 10^3 cells/mL for the HT29 and RAW 264.7 cell lines, at 5.0 × 10^3 cells/mL for B16–F10 cells, and 15.0 × 10^3 cells/mL for the HepG2 cell line, with a final volume of 200 μL per well being incubated with the different products (0–100 μg/mL). After 72 h, 100 μL of MTT solution (0.5 mg/mL) in 50% of PBS and 50% of the medium was added to each well. Following incubation for 1.5 h, formazan was resuspended in 100 μL of DMSO, and each concentration was tested in triplicate. The cell viability relative to the untreated control cells was determined by measuring the absorbance at 570 nm using an ELISA plate reader (Tecan Sunrise MR20–301, TECAN, Grödig, Austria).

[6] = test system: human hepatocarcinoma (HepG2); experiment: MTT cell viability assay, HepG2; type: cell-based; details: Homo sapiens; for IC80: 72 h, 80% growth inhibition; for IC50: HepG2, 72 h, read-out: IC50
Excerpt: as §1, §2, §3

[7] = test system: NO release in LPS-stimulated RAW 264.7 macrophage cells; experiment: Inhibition of nitric oxide production (Griess nitrite assay) in LPS-activated RAW 264.7 macrophages; type: cell-based, murine; details: LPS-stimulated RAW 264.7, 48 h; for NO inhibition: ¾ IC50 concentration; for IC50: Mus musculus, RAW264.7
Experimental: To evaluate the anti-inflammatory activity of the rearranged abietanes (5, 7, 17, and 19) along with their precursor 13, we conducted experiments on RAW 264.7 macrophage cells, a well-known model for screening anti-inflammatory compounds. The macrophages were stimulated with LPS to induce the maximum release of nitric oxide (NO) during the inflammatory response. Subsequently, the different compounds were incubated with the cells at sub-cytotoxic concentrations for 48 h (Figure 9). Next, we determined the concentration of nitrites in the culture medium, which was proportional to the amount of NO release.
Nitrite production was analyzed using the Griess reaction method. The concentration of nitrite was used as an indication of nitric oxide (NO) production. RAW 264.7 cells were seeded at 6 × 10^4 cells/well in 24-well cell culture plates, supplemented with 10 μg/mL of lipopolysaccharide (LPS). […] The Griess reaction was conducted by mixing 150 μL of supernatant test samples or sodium nitrite standard (0–120 μM) with 25 μL of Griess reagent A (0.1% n-(1-naphthyl) ethylenediamine dihydrochloride) and 25 μL of Griess reagent B (1% sulfanilamide in 5% of phosphoric acid) in a 96-well plate. The mixture was incubated at room temperature for 15 min, after which the absorbance was measured at 540 nm using an ELISA plate reader (Tecan Sunrise MR20–301, TECAN, Grödig, Austria). To determine the concentration of nitrite in each sample supernatant, the absorbance was referenced to the nitrite standard curve. To determine the percentage of NO production, the increase between the negative control (untreated cells) and the positive control (cells only with 10 μg/mL of LPS) was assigned 100%.

[8] = test system: human colon adenocarcinoma (HT29); experiment: MTT cell viability assay, HT29; type: cell-based; details: Homo sapiens, HT-29, 72 h; for IC80: 80% growth inhibition; for IC50: read-out: IC50
Excerpt: as §1, §2, §3

[9] = RAW 264.7 cell viability (MTT); type: cell-based, murine; details: mouse
Experimental: To evaluate the cytotoxic effects of the synthesized abietanes (5, 7, 13, 17, and 19) on RAW 264.7 monocyte/macrophage murine cells and to establish sub-cytotoxic concentrations for anti-inflammatory testing, we conducted cell viability assays using the MTT method. Each compound was tested at increasing concentration levels (0–100 μg/mL), and the IC50 values were determined by interpolation in the sigmoidal cytotoxicity curves (Figure 8). […] Additionally, sub-cytotoxic concentrations corresponding to ¾ IC50, ½ IC50, and ¼ IC50 were determined and selected for subsequent anti-inflammatory assays, ensuring that the observed effects were specifically attributed to the anti-inflammatory properties of the compounds rather than cytotoxicity. The human colorectal adenocarcinoma cell line HT29 (ECACC no. 9172201; ATCC no. HTB-38), the human hepatocarcinoma cell line HepG2 (ECACC no. 85011430), the mouse melanoma cells B16–F10 (ATCC no. CRL-6475), and the murine monocyte/macrophage like RAW 264.7 cell line (ATCC no, TIB-71) were obtained from the cell bank of the University of Granada, Spain. The tumor cell lines were cultured in DMEM (Dulbecco’s modified Eagle’s medium) supplemented with 2 mM glutamine, 10% heat-inactivated FCS (fetal calf serum), and 50 μg/mL of gentamicin (for all cancer cell lines). The RAW 264.7 cell line was cultured in RPMI1640 medium, supplemented with 2 mM glutamine, 10% heat-inactivated FCS, and 50 μg/mL of gentamicin. All cell lines were incubated at 37 °C, in an atmosphere of 5% CO2 and 95% humidity. The culture media were changed every 48 h, and the confluent cultures were separated with a trypsin solution (0.25% EDTA). In all experiments, monolayer cells were grown to 80–90% confluence in sterile cell culture flasks. The effects of the compounds on the cell viability were established using the MTT method (Sigma, St. Louis, MO, USA). The cytotoxicity of the compounds was assessed by measuring the absorbance of MTT dye staining of metabolically competent cells. The cells were cultivated in 96-well plates at 6.0 × 10^3 cells/mL for the HT29 and RAW 264.7 cell lines, at 5.0 × 10^3 cells/mL for B16–F10 cells, and 15.0 × 10^3 cells/mL for the HepG2 cell line, with a final volume of 200 μL per well being incubated with the different products (0–100 μg/mL). After 72 h, 100 μL of MTT solution (0.5 mg/mL) in 50% of PBS and 50% of the medium was added to each well. Following incubation for 1.5 h, formazan was resuspended in 100 μL of DMSO, and each concentration was tested in triplicate. The cell viability relative to the untreated control cells was determined by measuring the absorbance at 570 nm using an ELISA plate reader (Tecan Sunrise MR20–301, TECAN, Grödig, Austria).

[10] = test system: P388 leukemia cells; design: method as in doi:10.1076/phbi.37.2.148.6082; details: cited from earlier work
[11] = RAW 264.7 monocyte/macrophage cells, RAW 264.7, MTT, 0–100 μg/mL, read-out: IC50 (cytotoxicity)

Molecule	IC50 [1] [µM]	cytotoxic effect [2]	IC50 [3] [µg/mL]	IC50 [4] [µg/mL]	IC50 [5] [µg/mL]	IC80 [5] [µg/mL]	IC80 [6] [µg/mL]	IC50 [6] [µg/mL]	NO inhibition [7] [%]	IC50 [7] [µg/mL]	IC80 [8] [µg/mL]	IC50 [8] [µg/mL]	IC50 at 72 h [9, 11] [µg/mL]	IC50 at 72 h [9] [µg/mL]	cytotoxicity [10]
aegyptinone A	2.11 to 8.19														
C=C(C)CCCc1c(C)ccc2c1C(=O)C(=O)C(C(C)C)=C2 [aethiopinone]		potent cytotoxic effect	4.8 (≈ 16.2 µM)	0.6 (≈ 2.02 µM)											
CC(C)C1=CC2=C(C(=O)C1=O)C1=CCCC(C)(C)[C@@]1(C)C=C2 [Compound 19, viridoquinone]					6.42 ± 0.35 (≈ 21.7 µM)	9.14 ± 0.38 (≈ 30.8 µM)	101 ± 3.47 (≈ 339 µM)	76.3 ± 2.14 (≈ 257 µM)	100	7.21 ± 0.9 (≈ 24.3 µM)	74.7 ± 1.53 (≈ 252 µM)	60.52 ± 0.28 (≈ 204 µM)	9.29 ± 0.35 (≈ 31.3 µM)		
tebesinone B	5.47 to 10.3														
CC(C)c1cc2c(c(O)c1O)C1=CC(=O)CC(C)(C)[C@@]1(C)C=C2 [Compound 17, pygmaeocin C]					10.1 ± 1.81 (≈ 32.4 µM)	26.6 ± 4.82 (≈ 85.2 µM)	73.5 ± 2.06 (≈ 235 µM)	38.8 ± 1.55 (≈ 124 µM)	91	1.73 ± 0.04 (≈ 5.54 µM)	24.4 ± 2.65 (≈ 78 µM)	15.3 ± 0.71 (≈ 48.9 µM)		6.27 ± 0.94 (≈ 20.1 µM)	
CC(C)=CCCc1c(C)ccc2c1C(=O)C(=O)C(C(C)C)=C2 [Compound 7, saprorthoquinone]					6.89 ± 0.37 (≈ 23.2 µM)	8.02 ± 0.52 (≈ 27.1 µM)	29.12 ± 0.21 (≈ 98.2 µM)	21.2 ± 2.26 (≈ 71.4 µM)	100	1.3 ± 0.08 (≈ 4.39 µM)	10.6 ± 0.28 (≈ 35.8 µM)	7.82 ± 0.17 (≈ 26.4 µM)	2.81 ± 0.45 (≈ 9.48 µM)		strong cytotoxicity
